Measurements: patent US20260193264A1, “BENZOYPARAZINE PYRAZINES AND THEIR USES” (FOGHORN THERAPEUTICS INC., priority 2022, published 2026)

Columns and labels:
[1] = molecular target: T1, HiBit-BRG1 fusion protein in stable HeLa cell line expressing HiBit-BRG1 and LgBit (Homo sapiens, UniProt P51532); experiment: HiBiT-BRG1 cell-based degradation assay (Nano-Glo HiBiT, 24 h); settings: HeLa HiBit-BRG1/LgBit cells; for DC50: read-out: BRMG1 HiBit Degradation IC50; for Dmax: top dose 30 μM, read-out: BRG1 HiBit Degradation Maximum (%)
T1 construct: expressed in transfected cells
T1 sequence (P51532 whole entry, the tested form may be a part): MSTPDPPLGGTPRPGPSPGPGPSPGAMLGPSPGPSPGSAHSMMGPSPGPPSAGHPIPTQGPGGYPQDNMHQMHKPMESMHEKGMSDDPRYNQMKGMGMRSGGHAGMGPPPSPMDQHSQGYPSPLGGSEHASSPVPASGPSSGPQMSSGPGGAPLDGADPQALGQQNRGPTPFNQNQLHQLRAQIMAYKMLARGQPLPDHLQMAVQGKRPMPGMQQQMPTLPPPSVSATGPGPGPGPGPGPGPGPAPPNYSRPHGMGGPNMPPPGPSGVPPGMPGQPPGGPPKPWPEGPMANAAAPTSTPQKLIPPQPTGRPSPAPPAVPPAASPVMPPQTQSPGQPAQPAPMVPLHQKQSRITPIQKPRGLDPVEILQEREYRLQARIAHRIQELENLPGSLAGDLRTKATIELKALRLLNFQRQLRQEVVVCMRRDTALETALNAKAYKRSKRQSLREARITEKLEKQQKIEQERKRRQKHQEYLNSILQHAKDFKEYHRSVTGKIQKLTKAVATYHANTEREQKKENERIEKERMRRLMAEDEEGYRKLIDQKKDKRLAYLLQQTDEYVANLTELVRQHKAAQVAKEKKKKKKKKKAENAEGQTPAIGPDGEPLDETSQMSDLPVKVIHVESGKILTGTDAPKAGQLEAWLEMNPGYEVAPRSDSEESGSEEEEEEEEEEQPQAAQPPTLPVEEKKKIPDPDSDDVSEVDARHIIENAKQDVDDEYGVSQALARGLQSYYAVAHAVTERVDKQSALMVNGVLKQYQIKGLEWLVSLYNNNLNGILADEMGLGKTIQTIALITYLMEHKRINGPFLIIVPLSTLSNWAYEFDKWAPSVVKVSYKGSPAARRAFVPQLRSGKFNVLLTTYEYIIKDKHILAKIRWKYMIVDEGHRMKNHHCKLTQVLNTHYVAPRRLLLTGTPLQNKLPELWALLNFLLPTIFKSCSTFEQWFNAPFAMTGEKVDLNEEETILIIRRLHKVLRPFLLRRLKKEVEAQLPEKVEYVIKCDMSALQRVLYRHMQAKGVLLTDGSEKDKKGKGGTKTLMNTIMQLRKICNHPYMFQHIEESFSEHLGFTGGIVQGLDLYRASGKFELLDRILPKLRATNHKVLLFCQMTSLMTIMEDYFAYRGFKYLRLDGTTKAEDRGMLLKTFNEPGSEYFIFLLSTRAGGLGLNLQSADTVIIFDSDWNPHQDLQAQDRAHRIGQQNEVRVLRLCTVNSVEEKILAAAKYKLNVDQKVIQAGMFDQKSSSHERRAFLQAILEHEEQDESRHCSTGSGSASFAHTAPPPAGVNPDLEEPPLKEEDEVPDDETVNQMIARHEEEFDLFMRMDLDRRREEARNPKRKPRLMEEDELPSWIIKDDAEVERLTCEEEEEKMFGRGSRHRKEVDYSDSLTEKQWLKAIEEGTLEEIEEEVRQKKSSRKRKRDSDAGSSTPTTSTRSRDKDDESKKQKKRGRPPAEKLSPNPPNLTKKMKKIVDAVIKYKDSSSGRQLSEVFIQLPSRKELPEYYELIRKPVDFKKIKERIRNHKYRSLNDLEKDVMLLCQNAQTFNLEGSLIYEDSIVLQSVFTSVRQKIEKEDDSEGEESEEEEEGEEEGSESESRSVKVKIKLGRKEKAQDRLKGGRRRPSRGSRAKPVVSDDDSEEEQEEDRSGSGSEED
In short: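 Stable HeLa line co-expressing HiBiT-BRG1 and LgBiT, compound-treated 24 h; luminescence read after Nano-Glo HiBiT lytic reagent. % degradation normalised between DMSO (high control) and 2 μM reference BRM/BRG1 degrader (low control).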

[2] = molecular target: T2, HiBiT-BRM fusion protein in stable HeLa cell line (Homo sapiens, UniProt P51531); experiment: HiBiT-BRM cell-based degradation assay (Nano-Glo HiBiT Lytic Detection, 24 h); parameters: DC50: scale not given here; settings: HeLa HiBiT-BRM cells; for DC50: read-out: BRM HiBit Degradation IC50; for BRM HiBit Degradation Maximum (%): top dose 30 μM
T2 construct: expressed in transfected cells
T2 sequence (P51531 whole entry, the tested form may be a part): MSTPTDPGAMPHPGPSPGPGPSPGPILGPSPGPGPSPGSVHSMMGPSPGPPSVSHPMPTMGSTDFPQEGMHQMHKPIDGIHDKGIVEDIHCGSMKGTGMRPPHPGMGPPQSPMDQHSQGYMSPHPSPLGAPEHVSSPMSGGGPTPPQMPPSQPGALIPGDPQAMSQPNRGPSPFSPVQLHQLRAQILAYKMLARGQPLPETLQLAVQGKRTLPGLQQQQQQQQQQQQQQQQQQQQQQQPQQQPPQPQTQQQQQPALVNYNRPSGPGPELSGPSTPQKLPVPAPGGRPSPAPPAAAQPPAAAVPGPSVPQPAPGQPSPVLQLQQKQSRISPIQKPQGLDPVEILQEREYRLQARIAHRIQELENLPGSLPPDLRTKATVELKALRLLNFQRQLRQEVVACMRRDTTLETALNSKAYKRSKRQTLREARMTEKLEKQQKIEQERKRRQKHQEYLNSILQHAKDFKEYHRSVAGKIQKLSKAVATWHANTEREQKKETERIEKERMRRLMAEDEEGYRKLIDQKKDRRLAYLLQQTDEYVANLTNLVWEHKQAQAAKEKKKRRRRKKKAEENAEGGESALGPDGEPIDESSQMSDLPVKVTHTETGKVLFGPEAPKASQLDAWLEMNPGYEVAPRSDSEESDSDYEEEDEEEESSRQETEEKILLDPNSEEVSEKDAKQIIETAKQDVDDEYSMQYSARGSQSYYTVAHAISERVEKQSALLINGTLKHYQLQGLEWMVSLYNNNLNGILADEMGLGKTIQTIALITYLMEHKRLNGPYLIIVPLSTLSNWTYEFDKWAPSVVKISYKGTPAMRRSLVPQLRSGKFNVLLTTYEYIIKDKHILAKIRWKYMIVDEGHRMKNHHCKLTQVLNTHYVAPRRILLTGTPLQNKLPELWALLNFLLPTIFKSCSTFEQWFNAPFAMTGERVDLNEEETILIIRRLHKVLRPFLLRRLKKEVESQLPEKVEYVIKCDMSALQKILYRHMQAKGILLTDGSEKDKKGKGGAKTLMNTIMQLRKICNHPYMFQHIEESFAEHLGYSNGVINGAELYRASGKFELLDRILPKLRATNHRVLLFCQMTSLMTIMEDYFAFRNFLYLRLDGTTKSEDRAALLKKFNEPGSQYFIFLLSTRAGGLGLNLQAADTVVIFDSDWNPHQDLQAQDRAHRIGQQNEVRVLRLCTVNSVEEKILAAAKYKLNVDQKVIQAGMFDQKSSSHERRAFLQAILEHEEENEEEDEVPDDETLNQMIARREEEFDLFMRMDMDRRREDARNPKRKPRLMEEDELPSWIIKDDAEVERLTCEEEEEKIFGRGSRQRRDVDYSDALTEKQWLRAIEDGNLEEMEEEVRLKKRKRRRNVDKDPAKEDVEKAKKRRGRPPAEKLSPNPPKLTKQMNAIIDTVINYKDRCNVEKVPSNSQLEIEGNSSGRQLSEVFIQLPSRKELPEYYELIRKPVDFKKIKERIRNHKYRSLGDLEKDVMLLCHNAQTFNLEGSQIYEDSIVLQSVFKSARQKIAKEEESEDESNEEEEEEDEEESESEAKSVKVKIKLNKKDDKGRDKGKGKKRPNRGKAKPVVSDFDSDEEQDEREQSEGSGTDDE
In short: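 Luminescence from HiBiT/LgBiT complementation after lysis reports remaining HiBiT-BRM in stable HeLa cells exposed to compound for 24 h. Dosing used 3-fold serial dilutions, 10 points, 30 μM top final concentration. DMSO and a 2 μM BRM/BRG1 degrader standard defined 0% and 100% degradation.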

SMILES | DC50 [1] | Dmax [1] | DC50 [2] | BRM HiBit Degradation Maximum (%) [2]
CC(C)[C@@H](C(=O)N1C[C@H](O)C[C@H]1C(=O)N[C@@H](C)c1ccc(F)cc1)n1cc(N2CC3(CN(c4ccc5cc(-c6ccccc6O)nnc5c4)C3)C2)nn1 [Compound 201, (2S,4R)-N-((S)-1-(4-fluorophenyl)ethyl)-4-hydroxy-1-((S)-2-(4-(6-(3-(2-hydroxyphenyl)cinnolin-7-yl)-2,6-diazaspiro[3.3]heptan-2-yl)-1H-1,2,3-triazol-1-yl)-3-methylbutanoyl)pyrrolidine-2-carboxamide] | > 10 nM | > 50% | < 10 nM | A (“A” indicates maximum degradation ≥75%)
CC(C)[C@@H](C(=O)N1C[C@H](O)C[C@H]1C(=O)N[C@@H](C)c1ccc(C#N)cc1)n1cc(N2CC3(CN(c4ccc5cc(-c6ccccc6O)nnc5c4)C3)C2)nn1 [Compound 202, (2S,4R)-N-((S)-1-(4-cyanophenyl)ethyl)-4-hydroxy-1-((S)-2-(4-(6-(3-(2-hydroxyphenyl)cinnolin-7-yl)-2,6-diazaspiro[3.3]heptan-2-yl)-1H-1,2,3-triazol-1-yl)-3-methylbutanoyl)pyrrolidine-2-carboxamide] | > 10 nM | > 50% | < 10 nM | A (“A” indicates maximum degradation ≥75%)
Cc1ncsc1-c1ccc([C@H](C)NC(=O)[C@@H]2C[C@@H](O)CN2C(=O)[C@H](C(C)C)n2cc(-c3ccc4nnc(-c5ccccc5O)cc4c3C)nn2)cc1 [Compound 203, (2S,4R)-4-hydroxy-1-((S)-2-(4-(3-(2-hydroxyphenyl)-5-methylcinnolin-6-yl)-1H-1,2,3-triazol-1-yl)-3-methylbutanoyl)-N-((S)-1-(4-(4-methylthiazol-5-yl)phenyl)ethyl)pyrrolidine-2-carboxamide] |  | < 50% | > 10 nM | A (“A” indicates maximum degradation ≥75%)
Cc1ncsc1-c1ccc([C@H](C)NC(=O)[C@@H]2C[C@@H](O)CN2C(=O)[C@H](C(C)C)n2cc(C3CC4(C3)CN(c3ccc5nnc(-c6ccccc6O)cc5c3)C4)nn2)cc1 [Compound 204, (2S,4R)-4-hydroxy-1-((S)-2-(4-(2-(3-(2-hydroxyphenyl)cinnolin-6-yl)-2-azaspiro[3.3]heptan-6-yl)-1H-1,2,3-triazol-1-yl)-3-methylbutanoyl)-N-((S)-1-(4-(4-methylthiazol-5-yl)phenyl)ethyl)pyrrolidine-2-carboxamide] | < 10 nM | > 75% | < 10 nM | A (“A” indicates maximum degradation ≥75%)
Cc1ncsc1-c1ccc([C@H](C)NC(=O)[C@@H]2C[C@@H](O)CN2C(=O)[C@@H](c2cc(N3CC4(CN(c5cc(C(F)F)c6cc(-c7ccccc7O)nnc6c5)C4)C3)no2)C(C)C)cc1 [Compound 205, (2S,4R)-1-((R)-2-(3-(6-(5-(difluoromethyl)-3-(2-hydroxyphenyl)cinnolin-7-yl)-2,6-diazaspiro[3.3]heptan-2-yl)isoxazol-5-yl)-3-methylbutanoyl)-4-hydroxy-N-((S)-1-(4-(4-methylthiazol-5-yl)phenyl)ethyl)pyrrolidine-2-carboxamide] |  | < 50% | < 10 nM | A (“A” indicates maximum degradation ≥75%)
Cc1ncsc1-c1ccc([C@H](C)NC(=O)[C@@H]2C[C@@H](O)CN2C(=O)[C@@H](c2cc(N3CC4(C3)CN(c3cc5nnc(-c6ccccc6O)cc5cc3OC(F)F)C4)no2)C(C)C)cc1 [Compound 206, (2S,4R)-1-((R)-2-(3-(6-(6-(difluoromethoxy)-3-(2-hydroxyphenyl)cinnolin-7-yl)-2,6-diazaspiro[3.3]heptan-2-yl)isoxazol-5-yl)-3-methylbutanoyl)-4-hydroxy-N-((S)-1-(4-(4-methylthiazol-5-yl)phenyl)ethyl)pyrrolidine-2-carboxamide] | > 10 nM | > 50% | < 10 nM | A (“A” indicates maximum degradation ≥75%)
Cc1ncsc1-c1ccc([C@H](C)NC(=O)[C@@H]2C[C@@H](O)CN2C(=O)[C@@H](c2cc(N3CC4(C3)CN(c3cc5nnc(-c6ccccc6O)cc5cc3N(C)C)C4)no2)C(C)C)cc1 [Compound 207, (2S,4R)-1-((R)-2-(3-(6-(6-(dimethylamino)-3-(2-hydroxyphenyl)cinnolin-7-yl)-2,6-diazaspiro[3.3]heptan-2-yl)isoxazol-5-yl)-3-methylbutanoyl)-4-hydroxy-N-((S)-1-(4-(4-methylthiazol-5-yl)phenyl)ethyl)pyrrolidine-2-carboxamide] | < 10 nM | > 75% | < 10 nM | A (“A” indicates maximum degradation ≥75%)
Cc1ncsc1-c1ccc([C@H](C)NC(=O)[C@@H]2C[C@@H](O)CN2C(=O)[C@H](C(C)C)n2cc(C3CC4(CC(c5ccc6cc(-c7ccccc7O)nnc6c5)C4)C3)nn2)cc1 (stereo partly drawn) [Compound 208, (2S,4R)-4-hydroxy-1-[(2S)-2-(4-{6-[3-(2-hydroxyphenyl)cinnolin-7-yl]spiro[3.3]heptan-2-yl}-1,2,3-triazol-1-yl)-3-methylbutanoyl]-N-[(1S)-1-[4-(4-methyl-1,3-thiazol-5-yl)phenyl]ethyl]pyrrolidine-2-carboxamide] | > 10 nM | > 75% | < 10 nM | A (“A” indicates maximum degradation ≥75%)

Now from value to molecule, other results behind:

DC50 [1] | Dmax [1] | DC50 [2] | SMILES | BRM HiBit Degradation Maximum (%) [2]
 | < 50% | < 10 nM | CNC(=O)[C@@H]1C[C@@H](O)CN1C(=O)[C@@H](c1cc(N2CC3(C2)CN(c2cc4nnc(-c5ccccc5O)cc4cc2OC)C3)no1)C(C)C [Compound 209, (2S,4R)-4-hydroxy-1-((R)-2-(3-(6-(3-(2-hydroxyphenyl)-6-methoxycinnolin-7-yl)-2,6-diazaspiro[3.3]heptan-2-yl)isoxazol-5-yl)-3-methylbutanoyl)-N-methylpyrrolidine-2-carboxamide] | A (“A” indicates maximum degradation ≥75%)
 | < 50% | < 10 nM | Cc1ncsc1-c1ccc([C@H](C)NC(=O)[C@@H]2C[C@@H](O)CN2C(=O)[C@H](C2CCC2)n2cc(N3CC4(CN(c5ccc6cc(-c7ccccc7O)nnc6c5)C4)C3)nn2)cc1 [Compound 211, (2S,4R)-1-((S)-2-cyclobutyl-2-(4-(6-(3-(2-hydroxyphenyl)cinnolin-7-yl)-2,6-diazaspiro[3.3]heptan-2-yl)-1H-1,2,3-triazol-1-yl)acetyl)-4-hydroxy-N-((S)-1-(4-(4-methylthiazol-5-yl)phenyl)ethyl)pyrrolidine-2-carboxamide] | A (“A” indicates maximum degradation ≥75%)
> 10 nM | > 75% | < 10 nM | Cc1ncsc1-c1ccc([C@H](C)NC(=O)[C@@H]2C[C@@H](O)CN2C(=O)[C@H](C(C)C)n2cc(N3CC4(CC(c5ccc6cc(-c7ccccc7O)nnc6c5)C4)C3)nn2)cc1 [Compound 212, (2S,4R)-4-hydroxy-1-((S)-2-(4-(6-(3-(2-hydroxyphenyl)cinnolin-7-yl)-2-azaspiro[3.3]heptan-2-yl)-1H-1,2,3-triazol-1-yl)-3-methylbutanoyl)-N-((S)-1-(4-(4-methylthiazol-5-yl)phenyl)ethyl)pyrrolidine-2-carboxamide] | A (“A” indicates maximum degradation ≥75%)
 | < 50% | < 10 nM | Cc1ncsc1-c1ccc([C@H](C)NC(=O)[C@@H]2C[C@@H](O)CN2C(=O)C(C(C)C)n2cc(N3C[C@H]4CN(c5ccc6cc(-c7ccccc7O)nnc6c5)C[C@H]4C3)nn2)cc1 (stereo partly drawn) [Compound 213, (2S,4R)-4-hydroxy-1-(2-(4-((3aR,6aS)-5-(3-(2-hydroxyphenyl)cinnolin-7-yl)hexahydropyrrolo[3,4-c]pyrrol-2(1H)-yl)-1H-1,2,3-triazol-1-yl)-3-methylbutanoyl)-N-((S)-1-(4-(4-methylthiazol-5-yl)phenyl)ethyl)pyrrolidine-2-carboxamide] | A (“A” indicates maximum degradation ≥75%)
 | > 50% | < 10 nM | Cc1ncsc1-c1ccc([C@H](C)NC(=O)[C@@H]2C[C@@H](O)CN2C(=O)[C@H](C(C)C)n2cc(N3CCN4CCN(c5ccc6nnc(-c7ccccc7O)cc6c5)CC4C3)nn2)cc1 (stereo partly shown) [Compound 214] | A (“A” indicates maximum degradation ≥75%)
 | < 50% | < 10 nM | CC(C)[C@@H](C(=O)N1C[C@H](O)C[C@H]1C(=O)N[C@@H](C)c1ccc(F)cc1)c1cc(N2CC3(C2)CN(c2cc4nnc(-c5ccccc5O)cc4cc2C#N)C3)no1 [Compound 217, (2S,4R)-1-((R)-2-(3-(6-(6-cyano-3-(2-hydroxyphenyl)cinnolin-7-yl)-2,6-diazaspiro[3.3]heptan-2-yl)isoxazol-5-yl)-3-methylbutanoyl)-N-((S)-1-(4-fluorophenyl)ethyl)-4-hydroxypyrrolidine-2-carboxamide] | A (“A” indicates maximum degradation ≥75%)
